Data reported in patent publication US20050245527A1, “Nitrogen containing heterocyclic compounds and medicines containing the same” (priority 2002, published 2005).

Tests used:
sodium channels = type: cell-based; details: read-out: IC50 (μM), sodium channel-inhibiting activity; rat fetal cultured hippocampal neurons, SBFI fluorescence in the presence of 4-aminopyridine, 5 minutes after addition, 1 μM tetrodotoxin = 100%
[1] = system: left saphenous nerve of rats (ectopic firing); experiment: Inhibition of ectopic firing; type: in vivo; details: Rattus norvegicus, iv; rats with cut left saphenous nerve, urethane anesthesia, compound via catheter in right cervical vein, number of firings in 10 seconds; read-out: Inhibition of ectopic firing (ID50)
Procedure: <Inhibition of Ectopic Firing>
(1) The inhibitory effect on ectopic firing was evaluated by the following method, with reference to Burchiel, K J., Exp. Neurol., 102, 249-253 (1988).
(2) The left saphenous nerve of rats, in which ectopic firing was observed, was cut near the knee joint, and approximately 3 mm was cut off to avoid reattachment of the cut nerve. After more than a week, the left saphenous nerve was exposed under urethane (1 g/kg body weight) anesthesia, and the proximal part up to approximately 1 cm from the cut site was detached from the surrounding tissue. A catheter was inserted in the right cervical vein beforehand for administration of the compound.
(3) The detached nerve was placed on a platinum hook electrode and wetted with liquid paraffin to avoid drying of the nerve. The electrode was connected to a microelectrode amplifier, and the change in potential was recorded from an oscilloscope through an A/D converter onto a computer. The recorded nerve firing was evaluated based on the number of firings in 10 seconds, using analyzing software (AcqKnowledge).

| Structure (SMILES) | IC50 (sodium channels) [µM] | ED50 [1] [mg/kg] |
| --- | --- | --- |
| O=c1[nH]ccnc1CN1CCC(COCc2ccccc2F)CC1 [Example 160, 3-[4-(2-Fluorobenzyloxymethyl)piperidino]methyl-1H-pyrazin-2-one] | 3.5 | 0.5 to 1 |
| Cc1ccccc1OCC1(O)CCN(Cc2ncc[nH]c2=O)CC1 [Example 210, 3-[4-Hydroxy-4-(2-methylphenoxymethyl)piperidino]methyl-1H-pyrazin-2-one] | 6 | 0.5 to 1 |
| O=c1[nH]ccnc1CN1CCC(COc2ccccc2F)CC1 [Example 142, 3-[4-(2-Fluorophenoxymethyl)piperidino]methyl-1H-pyrazin-2-one] | 4.2 | < 0.5 |
| O=c1[nH]ccnc1CN1CCC(COc2ccccc2C(F)(F)F)CC1 [Example 164, 3-[4-[2-(Trifluoromethyl)phenoxymethyl]piperidino]methyl-1H-pyrazin-2-one] | 3.3 | < 0.5 |
| O=c1[nH]ccnc1CN1CCC(COc2ccccc2Cl)CC1 [Example 158, 3-[4-(2-Chlorophenoxymethyl)piperidino]methyl-1H-pyrazin-2-one] | 3.7 | < 0.5 |
| COc1ccccc1C(=O)CC1CCN(Cc2ncc[nH]c2=O)CC1 [Example 145, 3-[4-[2-(2-Methoxyphenyl)-2-oxoethyl]piperidino]methyl-1H-pyrazin-2-one] | 9.5 | 0.5 to 1 |
| O=c1[nH]ccnc1CN1CCC(CCc2ccccc2F)(COc2ccccc2F)CC1 [Example 224, 3-[4-(2-Fluorophenoxymethyl)-4-[2-(2-fluorophenyl)ethyl]piperidino]methyl-1H-pyrazin-2-one] | 1.6 | 0.5 to 1 |
| CC(c1ncc[nH]c1=O)N1CCC(C(=O)Cc2ccccc2F)CC1 (centres unmarked) [Example 350, 3-[1-[4-[2-(2-Fluorophenyl)acetyl]piperidino]ethyl]-1H-pyrazin-2-one] | 6 | < 0.5 |
| O=c1[nH]ccnc1CN1CCC(c2nc(-c3ccccc3F)no2)CC1 [Example 187, 3-[4-[3-(2-Fluorophenyl)-1,2,4-oxadiazol-5-yl]piperidino]methyl-1H-pyrazin-2-one] | 3.5 | 0.5 to 1 |
| Cc1ccccc1COC1CCN(Cc2ncc[nH]c2=O)CC1 [Example 152, 3-[4-(2-Methylbenzyloxy)piperidino]methyl-1H-pyrazin-2-one] | 5.3 | 0.5 to 1 |
| Cc1ccccc1/C=C/C1CCN(Cc2ncc[nH]c2=O)CC1 [Example 171, (E)-3-[4-[2-(2-Methylphenyl)vinyl]piperidino]methyl-1H-pyrazin-2-one] | 0.6 | < 0.5 |
| Cc1ccccc1OCC1CCN(Cc2ncc[nH]c2=O)C1.O=C(O)C(=O)O (centres unmarked) [Example 136, 3-[3-(2-Methylphenoxymethyl)pyrrolidino]methyl-1H-pyrazin-2-one oxalate] | 4.7 | 0.5 to 1 |
| O=C(Cc1ccccc1C(F)(F)F)C1CCN(Cc2ncc[nH]c2=O)CC1 [Example 344, 3-[4-[2-[2-(Trifluoromethyl)phenyl]acetyl]piperidino]methyl-1H-pyrazin-2-one] | 4.4 | < 0.5 |
